This note sets out measurements from patent US20160222014A1, “COMPOUNDS FOR REGULATING FAK AND/OR SRC PATHWAYS” (ASANA BIOSCIENCES, LLC, priority 2013, published 2016).

Assay type in all cases: biochemical
One assay addresses T1, Recombinant Src enzyme (Homo sapiens, UniProt P12931).
T1 construct: purchased Millipore 14-326; host or cells: Sf21 insect cells
Description: Src HTRF assay. The procedure:
Enzyme assay buffer, supplements, and compounds were prepared as described in the FAK HTRF assay.
Recombinant Src enzyme expressed in Sf21 insect cells was obtained (Millipore, Cat No. 14-326, Lot # D8CN006U-K). A 35 μM stock was used at a final concentration of 5 nM in the assay.
Tyk2 synthetic peptide-Biotinylated-N-terminal tag-[…]
A custom made substrate, a Tyk2 synthetic peptide, biotinylated with an N-terminal tag was obtained (Biopeptide and Sigma, Cat. No. 14918001 VC80021). A 100 μM stock was used at a final concentration of 0.5 μM in the assay.
A 10 mM stock in 100 μL enzyme assay buffer pH7.4 was prepared freshly and used at a final concentration of 10 μM in the assay.
Dasatinib (Bristol-Myers Squibb)
The assay procedure was the same as discussed above.
On the technique in general: Time-resolved FRET reads energy transfer from a long-lived donor to a nearby acceptor.

Another assay concerns the target T2, recombinant human FAK1 (Homo sapiens, UniProt Q05397).
T2 construct: fused on or other part: N-terminal 6xHis tag
Nature of the assay: FAK1 HTRF assay. A digest of the protocol:
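IC50 values derive from HTRF % inhibition (ratio 665/620 nm, Eu–anti-phosphotyrosine 0.1 nM, SA-APC 12 nM). The kinase step ran 45 min at room temperature, pairing 10 nM His-FAK1(692–end) from baculovirus with 0.5 μM gastrin Tyr87 biotin-peptide and a reagent at 10 μM final, pH 7.4. Compound dilutions began at 10 μM.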

A further assay addresses T3, AURKB (Aurora B) enzyme (Homo sapiens, UniProt Q96GD4).
T3 construct: purchased Invitrogen PVR 130
Nature of the assay: Aurora B HTRF assay. To be noted: read-out: AuroraB IC50. On the procedure: AURKB (Aurora B) enzyme was obtained (Invitrogen, Cat No. PVR 130, Lot No. 857013J). A 8.64 μM stock was used at a final concentration 5 nM in the assay.
Lance@Ultera Ulight-PLK (Ser137) peptide substrate
Peptide substrate was obtained from Perkin Elmer (Lot#1629793, TRF0110-M). A 5 μM stock was used at a final concentration of 50 nM in the assay.
10 mM stock prepared freshly as above, used at a final concentration of 30 μM in assay.
The plate was covered with aluminum foil, put on a shaker and incubated 1 h at rt.
Reference: Pfizer aurora inhibitor PF-03814735 was procured from Selleckchem: Cat# S2725
Using stock Lance detection buffer, 1× Lance detection buffer was prepared. • 1. 10× lance detection buffer was diluted to 1×, mixed well and 100 μL was removed, and was used to substitute with antibody and EDTA (for a total of 2200 μL). • 2. 88 μL of […] EDTA was added from 500 mM stock. • 3. 14 μL Europium labeled antibody (LANCE@ Ultra EU-Anti-P-PLK(Ser 137), TRF0203-D, Lot No. 1630351, Perkin Elmer) was added from 625 nM stock; required concentration was 2 nM in the assay. • 4. The buffer well was mixed and 20 μL was transferred to the each well in the assay plate. • 5. The solutions were incubated for 1 h at rt. • 6. The plate was read using MET-HTRF® protocol using Pherastar equipment.

SMILES strings stand for the structures. Bounds are passed on as bounds.

T2 sequence (Q05397 422-680 limits assumed): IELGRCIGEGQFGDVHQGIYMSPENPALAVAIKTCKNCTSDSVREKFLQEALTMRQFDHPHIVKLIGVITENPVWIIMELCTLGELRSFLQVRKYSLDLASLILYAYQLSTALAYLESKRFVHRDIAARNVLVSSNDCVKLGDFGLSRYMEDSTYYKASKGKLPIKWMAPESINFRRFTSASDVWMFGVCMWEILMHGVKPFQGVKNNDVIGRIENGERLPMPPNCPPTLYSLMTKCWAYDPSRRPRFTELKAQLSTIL
T1 sequence (P12931 whole entry): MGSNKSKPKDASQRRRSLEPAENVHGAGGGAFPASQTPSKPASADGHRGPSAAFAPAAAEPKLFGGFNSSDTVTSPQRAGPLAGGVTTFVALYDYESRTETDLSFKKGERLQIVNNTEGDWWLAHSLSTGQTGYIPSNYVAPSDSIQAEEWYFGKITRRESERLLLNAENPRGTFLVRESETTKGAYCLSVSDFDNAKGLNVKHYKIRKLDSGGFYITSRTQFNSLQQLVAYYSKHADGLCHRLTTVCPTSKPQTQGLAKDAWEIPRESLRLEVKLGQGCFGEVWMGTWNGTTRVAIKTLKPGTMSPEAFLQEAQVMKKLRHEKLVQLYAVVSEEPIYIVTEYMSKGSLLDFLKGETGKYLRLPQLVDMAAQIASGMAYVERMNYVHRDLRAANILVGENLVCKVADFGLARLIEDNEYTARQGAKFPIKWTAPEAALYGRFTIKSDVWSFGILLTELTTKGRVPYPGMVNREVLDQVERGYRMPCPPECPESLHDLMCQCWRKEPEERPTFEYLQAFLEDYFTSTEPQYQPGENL
T3 sequence (Q96GD4 whole entry): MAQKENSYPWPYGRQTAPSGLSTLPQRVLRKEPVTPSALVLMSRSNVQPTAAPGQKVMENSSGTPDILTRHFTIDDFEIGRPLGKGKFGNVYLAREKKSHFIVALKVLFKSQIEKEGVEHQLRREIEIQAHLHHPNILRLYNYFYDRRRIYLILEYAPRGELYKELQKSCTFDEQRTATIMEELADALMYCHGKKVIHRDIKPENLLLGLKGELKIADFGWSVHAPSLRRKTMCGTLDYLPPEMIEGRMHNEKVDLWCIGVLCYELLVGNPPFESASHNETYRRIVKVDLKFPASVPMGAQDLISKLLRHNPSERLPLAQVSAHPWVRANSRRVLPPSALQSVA

A word on the IC50: it is the concentration needed to halve the response being measured. `CC(=O)Nc1cccc(Nc2ncc3ccn(S(=O)(=O)c4ccc(C)cc4)c3n2)c1` [Example 39]: at Recombinant Src enzyme, the IC50 is greater than 1000 nM.

As for `CC(=O)Nc1cccc(Nc2ncc3ccn(S(=O)(=O)c4cccc(OC(F)(F)F)c4)c3n2)c1` [Example 40], on Recombinant Src enzyme, the 50% inhibitory concentration (IC50) was greater than 1000 nM.

Take `O=C1CCc2cc(Nc3cc4c(ccn4S(=O)(=O)c4cccc(OC(F)(F)F)c4)cn3)ccc2N1` [Example 56]: the IC50 on Recombinant Src enzyme is greater than 1000 nM.

In the case of `CC(=O)Nc1ccc(Nc2cc3c(ccn3Cc3ccccc3OC(F)F)cn2)cc1` [Example 97], on Recombinant Src enzyme, the IC50 is greater than 1000 nM.

Take `CC(=O)Nc1cccc(Nc2cc3c(ccn3Cc3ccccc3OC(F)F)cn2)c1` [Example 98]: the IC50 at Recombinant Src enzyme is greater than 1000 nM.

As for `COc1ccccc1S(=O)(=O)n1ccc2cnc(Nc3cccc(NC(C)=O)c3)nc21` [Example 104], the IC50 at Recombinant Src enzyme was greater than 1000 nM.

On to `CC(C)(O)C(=O)Nc1cccc(Nc2ncc3ccn(S(=O)(=O)c4ccccc4OC(F)(F)F)c3n2)c1` [Example 110], for which, on Recombinant Src enzyme, the IC50 is greater than 1000 nM.

Regarding `O=S(=O)(c1ccccc1OC(F)(F)F)n1ccc2cnc(Nc3ccc(N4CCOCC4)cc3)nc21` [Example 112], the IC50 on Recombinant Src enzyme is greater than 1000 nM.

As to `COc1ccccc1S(=O)(=O)n1ncc2cnc(Nc3ccc4c(c3)CCC(=O)N4)cc21` [Example 130], the half-maximal inhibitory concentration (IC50) on Recombinant Src enzyme is greater than 1000 nM.

With `COc1ccccc1S(=O)(=O)n1ncc2cnc(Nc3ccc4ncsc4c3)cc21` [Example 132], the IC50 at Recombinant Src enzyme was greater than 1000 nM.

Regarding `CN(c1ncccc1Cn1ccc2cnc(Nc3ccncc3)nc21)S(C)(=O)=O` [Example 138], the IC50 at Recombinant Src enzyme is greater than 1000 nM.

In the case of `C[C@H]1CNCCN1c1ccc(Nc2ncc3ccn(S(=O)(=O)c4cccc5cccnc45)c3n2)cc1` [Example 326], the half-maximal inhibitory concentration (IC50) at recombinant human FAK1 and on AURKB (Aurora B) enzyme was less than 20 nM throughout.

Turning to `O=S(=O)(c1cccc2cccnc12)n1ccc2cnc(Nc3ccc(N4CCN(CCO)CC4)cc3)cc21` [Example 340], the IC50 on recombinant human FAK1 and on AURKB (Aurora B) enzyme was less than 20 nM in each case.

On to `O=S(=O)(c1cccc2cccnc12)n1ccc2cnc(Nc3ccc(N4CCC(O)CC4)cc3)cc21` [Example 346], for which the IC50 on recombinant human FAK1 and at AURKB (Aurora B) enzyme was less than 20 nM in each case.

For the molecule `CN1CCN(c2ccc(Nc3cc4c(ccn4S(=O)(=O)c4cccc5cccnc45)cn3)cc2)CC1` [Example 353], the concentration for half-maximal inhibition (IC50) at recombinant human FAK1 and on AURKB (Aurora B) enzyme was less than 20 nM in each case.

Consider `O=S(=O)(c1cccc2cccnc12)n1ccc2cnc(Nc3ccc4ncsc4c3)nc21` [Example 381], for which the IC50 at recombinant human FAK1 and on AURKB (Aurora B) enzyme was less than 20 nM in each case.

For the molecule `O=S(=O)(c1cccc2cccnc12)n1ccc2cnc(Nc3ccc(N4CCOCC4)cc3)nc21` [Example 389], the IC50 on recombinant human FAK1 and on AURKB (Aurora B) enzyme was less than 20 nM each time.

With `Cc1cc(Nc2cc3c(ccn3S(=O)(=O)c3ccccc3C#N)cn2)ccc1N1CCNCC1` [Example 390], the IC50 at recombinant human FAK1 and at AURKB (Aurora B) enzyme was less than 20 nM throughout.

In the case of `O=c1[nH]c2ccc(Nc3ncc4ccn(S(=O)(=O)c5cccc6cccnc56)c4n3)cc2[nH]1` [Example 395], the IC50 at recombinant human FAK1 and at AURKB (Aurora B) enzyme was less than 20 nM in each case.

Regarding `CN1CC2CC1CN2c1ccc(Nc2ncc3ccn(S(=O)(=O)c4cccc5cccnc45)c3n2)cc1` (centres unmarked) [Example 410], the IC50 on recombinant human FAK1 and at AURKB (Aurora B) enzyme was less than 20 nM in each case.

Regarding `N#Cc1ccccc1S(=O)(=O)n1ccc2cnc(Nc3ccc(N4CCN(CCO)CC4)cc3)cc21` [Example 413], the IC50 on recombinant human FAK1 and at AURKB (Aurora B) enzyme was less than 20 nM each time.

For the molecule `CN(c1ccccc1Cn1ccc2cnc(Nc3ccc(N4CCN(CCO)CC4)cc3)nc21)S(C)(=O)=O` [Example 423], the half-inhibitory concentration (IC50) at recombinant human FAK1 and on AURKB (Aurora B) enzyme was less than 20 nM throughout.

As for `COc1cc(Nc2ncc3ccn(S(=O)(=O)c4cccc5cccnc45)c3n2)ccc1N1CCN(C)CC1` [Example 427], the concentration for half-maximal inhibition (IC50) on recombinant human FAK1 and on AURKB (Aurora B) enzyme was less than 20 nM in each case.

In the case of `CN1CCN(c2ccc(Nc3ncc4ccn(Cc5ccccc5N(C)S(C)(=O)=O)c4n3)cc2)CC1` [Example 428], the IC50 on recombinant human FAK1 and on AURKB (Aurora B) enzyme was less than 20 nM each time.

Take `COc1cc(Nc2ncc3ccn(S(=O)(=O)c4cccc5cccnc45)c3n2)ccc1N1CCN(CCO)CC1` [Example 431]: the IC50 at recombinant human FAK1 and at AURKB (Aurora B) enzyme was less than 20 nM in each case.

As for `O=S(=O)(c1cccc2cccnc12)n1ccc2cnc(Nc3ccc(N4CCC(CO)CC4)cc3)nc21` [Example 440], the IC50 on recombinant human FAK1 and on AURKB (Aurora B) enzyme was less than 20 nM each time.

In the case of `CN(C)C1CCN(c2ccc(Nc3ncc4ccn(S(=O)(=O)c5cccc6cccnc56)c4n3)cc2)CC1` [Example 462], the IC50 at recombinant human FAK1 and at AURKB (Aurora B) enzyme was less than 20 nM in each case.

On to `C[C@H]1CN(c2ccc(Nc3cc4c(ccn4S(=O)(=O)c4ccccc4C#N)cn3)cc2)CCN1` [Example 472], for which the IC50 at recombinant human FAK1 and on AURKB (Aurora B) enzyme was less than 20 nM in each case.

Consider `C[C@H]1CNCCN1c1ccc(Nc2cc3c(ccn3S(=O)(=O)c3cccc4cccnc34)cn2)cc1` [Example 478], for which the concentration for half-maximal inhibition (IC50) at recombinant human FAK1 and on AURKB (Aurora B) enzyme was less than 20 nM in each case.

Regarding `C[C@@H]1CNCCN1c1ccc(Nc2cc3c(ccn3S(=O)(=O)c3cccc4cccnc34)cn2)cc1` [Example 480], the IC50 at recombinant human FAK1 and at AURKB (Aurora B) enzyme was less than 20 nM each time.

As to `CN(C)C1CCN(c2ccc(Nc3cc4c(ccn4S(=O)(=O)c4ccccc4C#N)cn3)cc2)CC1` [Example 485], the IC50 at recombinant human FAK1 and on AURKB (Aurora B) enzyme was less than 20 nM each time.

With `C[C@@H]1CNCCN1c1ccc(Nc2ncc3ccn(S(=O)(=O)c4cccc5cccnc45)c3n2)cc1` [Example 490], the IC50 at recombinant human FAK1 and on AURKB (Aurora B) enzyme was less than 20 nM each time.

As to `CC1(C)CN(S(=O)(=O)c2cccc3cccnc23)c2nc(Nc3ccc4c(c3)CCC(=O)N4)ncc21` [Example 545], the IC50 at recombinant human FAK1 and on AURKB (Aurora B) enzyme was less than 20 nM throughout.

Regarding `CS(=O)(=O)Nc1ccccc1Cn1ccc2cnc(Nc3ccc4c(c3)CCC(=O)N4)nc21` [Example 595], the IC50 on recombinant human FAK1 and on AURKB (Aurora B) enzyme was less than 20 nM in each case.

In the case of `CN(c1ccccc1Cn1ccc2cnc(Nc3ccc(N4CCNC(C)(C)C4)cc3)nc21)S(C)(=O)=O` [Example 606], the IC50 on recombinant human FAK1 and at AURKB (Aurora B) enzyme was less than 20 nM throughout.

Take `CS(=O)(=O)Nc1ccccc1Cn1ccc2cnc(Nc3ccc4c(c3)OCC(=O)N4)nc21` [Example 618]: the IC50 on recombinant human FAK1 and at AURKB (Aurora B) enzyme was less than 20 nM throughout.

`C[C@H](O)CN1CCN(c2ccc(Nc3ncc4ccn(Cc5ccccc5N(C)S(C)(=O)=O)c4n3)cc2)CC1` [Example 632]: the half-inhibitory concentration (IC50) on recombinant human FAK1 and at AURKB (Aurora B) enzyme was less than 20 nM in each case.

Turning to `CN(c1ccccc1Cn1ccc2cnc(Nc3ccc(N4CCN(CC(=O)O)CC4)cc3)nc21)S(C)(=O)=O` [Example 662], the IC50 at recombinant human FAK1 and at AURKB (Aurora B) enzyme was less than 20 nM throughout.

Regarding `C[C@@H](O)CN1CCN(c2ccc(Nc3ncc4ccn(Cc5ccccc5N(C)S(C)(=O)=O)c4n3)cc2)CC1` [Example 665], the IC50 at recombinant human FAK1 and at AURKB (Aurora B) enzyme was less than 20 nM in each case.

In the case of `COc1ccc(N(C)S(C)(=O)=O)c(Cn2ccc3cnc(Nc4ccc(N5CCN[C@@H](C)C5)cc4)nc32)c1` [Example 675], the IC50 at recombinant human FAK1 and at AURKB (Aurora B) enzyme was less than 20 nM throughout.

As to `COc1ccc(N(C)S(C)(=O)=O)c(Cn2ccc3cnc(Nc4ccc5c(c4)CC(=O)N5)nc32)c1` [Example 691], the IC50 on recombinant human FAK1 and at AURKB (Aurora B) enzyme was less than 20 nM each time.

As for `C[C@H](O)CN1CCN(c2ccc(Nc3ncc4ccn(Cc5ccccc5N(C)S(C)(=O)=O)c4n3)cc2)C[C@@H]1C` [Example 695, N-(2-((2-((4-((S)-4-((S)-2-hydroxypropyl)-3-methylpiperazin-1-yl)phenyl)amino)-7H-pyrrolo[2,3-d]pyrimidin-7-yl)methyl)phenyl)-N-methylmethanesulfonamide], the IC50 at recombinant human FAK1 and on AURKB (Aurora B) enzyme was less than 20 nM throughout.

For the molecule `CN1CCC(NC(=O)c2ccc(Nc3ncc4ccn(Cc5ccccc5N(C)S(C)(=O)=O)c4n3)cc2)CC1` [Example 777], the IC50 on recombinant human FAK1 and on AURKB (Aurora B) enzyme was less than 20 nM each time.

On to `Cc1ccc(N(C)S(C)(=O)=O)c(Cn2ccc3cnc(Nc4ccc(N5CCC(N(C)C)CC5)c(C)c4)nc32)c1` [Example 780], for which the IC50 at recombinant human FAK1 and at AURKB (Aurora B) enzyme was less than 20 nM in each case.
